Test results published in EP0337714A2, “HIV protease inhibitors useful for the treatment of aids” (priority 1988, dated 1989).

How the values were obtained:
[1] = biological target: T1, HIV protease (Human immunodeficiency virus type 1 group M subtype B, UniProt P03366); assay: biochemical; settings: protease expressed in Eschericia coli, substrate Val-Ser-Gln-Asn-(betanapthyl)Ala-Pro-ile-Val 0.5 mg/mL, 50 mM Na acetate, pH 5.5, 30°, 1 hour; read-out: ICso
T1 construct: made in house; host or cells: Escherichia coli
Experimental: Assay for Inhibition of Microbial Expressed Viral Protease
Inhibition studies of the reaction of the protease expressed in Eschericia coli with a peptide substrate [Val-Ser-Gln-Asn-(betanapthyl)Ala-Pro-ile-Val, 0.5 mg/mL at the time the reaction is initiated] were in 50 mM Na acetate, pH 5.5, at 30° for 1 hour. Various concentrations of inhibitor in 1.0 ul DMSO were added to 25 ui of the peptide solution in water. The reaction is initiated by the addition of 15 ul of 0.33 nM protease (0.11 ng) in a solution of 0.133 M Na acetate pH 5.5 and 0.267% bovine serum albumin. The reaction was quenched with 160 ul of 5% phosphoric acid. Products of the reaction were separated by HPLC (VYDAC wide pore 5 cm C-18 reverse phase, acetonitrile gradient, 0.1% phosphoric acid). The extent of inhibition of the reaction was determined from the peak heights of the products.
Additional compounds were tested by the assay of Example 9.

[2] = biological target: T1, HIV protease; assay: Assay for Inhibition of Synthetic Viral Protease (HPLC of peptide substrate cleavage products); format: biochemical; settings: synthetic protease (residues 69-167 of the pol open reading frame), substrate Val-Ser-Gln-Asn-Tyr-Pro-Ile-Val 2 mg/mL, 50 mM Na acetate, pH 5.5, 30 C, 1 hour; read-out: ICso
Experimental: Assay for Inhibition of Synthetic Viral Protease
Inhibition studies of the reaction of the synthetic protease [amino acid residues 69-167 of the pol open reading frame in Ratner, L. et al, Nature, 313, 277 (1985) and synthesized by Merrifield solid-phase synthesis] with a peptide substrate[Val-Ser-Gln-Asn-Tyr-Pro-Ile-Val, 2 mg/mL when the reaction is initiated) were in 50 mM Na acetate, pH 5.5, at 30 C for 1 hour. Various concentrations of inhibitor in 1.0 µl DMSO were added to 36 µl of assay solution and the reaction initiated by the addition of 4 ul (1.6 µg) of synthetic protease. The reaction was quenched with 160 ul of 12% acetic acid. Products of the reaction were separated by HPLC (VYDAC wide pore 5 cm C-18 reverse phase, acetonitrile gradient, 0.1% trifluoroacetic acid). The extent of inhibition of the reaction was determined from the peak heights of the products. HPLC of the products, independently synthesized, provided quantitation standards and confirmation of the product composition.

IC50 [1] [nM] | SMILES | IC50 [2] [nM]
~1.4 | CC(C)C[C@H](NC(=O)[C@H](Cc1ccccc1)C[C@H](O)[C@H](Cc1ccccc1)NC(=O)OC(C)(C)C)C(=O)NCc1ccccc1 [Compound II, N-Benzyl-N'-(1,1-dimethylethexycarbonyl)-5(S)-amino-4(S)-hydroxy-6-phenyl-2(R)-(phenylmethyl)hexanoyl-leucyl-amide] | –
~0.6 | CC(C)C[C@H](NC(=O)[C@H](Cc1ccccc1)C[C@H](O)[C@H](Cc1ccccc1)NC(=O)OC(C)(C)C)C(=O)N[C@@H](Cc1ccccc1)C(N)=O [Compound I, N'-(1,1-Dimethylethoxycarbonyl)-5(S)-amino-4(S)-hydroxy-6-phenyl-2(R)-(phenylmethyl)-hexanoyl-Leucyl-phenylalanyl amide] | ~2
– | CC(C)C[C@H](NC(=O)[C@H](Cc1ccccc1)C[C@H](O)[C@H](CC1CCCCC1)NC(=O)OC(C)(C)C)C(=O)N[C@@H](Cc1ccccc1)C(N)=O [Compound IV, N'-(1,1-dimethylethoxycarbonyl)-5(S)-amino-4(S)-hydroxy-6-cyclohexyl-2(R)-(phenylmethyl)hexanoyl-leucyl-phenylalanylamide] | ~27

SMILES | IC50 [1] [nM] | IC50 [2] [nM]
CC(C)(C)OC(=O)N[C@@H](Cc1ccccc1)[C@@H](O)C[C@@H](Cc1ccccc1)C(=O)NCc1ccccc1 [Compound III] | ~120 | ~50
